# Measurements published in patent US12410163B2, “Compounds as GLP-IR agonists” (Terns Pharmaceuticals, Inc., priority 2022, dated 2025).
# Molecular target: T1, human GLP-1R receptor (Homo sapiens, UniProt P43220)
# T1 construct: expressed in transfected cells
# Experiment: GLP-1R low expression cell assay (cAMP TR-FRET, CHO-K1_hGLP-1Rlow_clone10)
# Assay type: cell-based
# Settings: CHO-K1_hGLP-1Rlow_clone10 cells, percent activation relative to control GLP-1 peptide
# Method: Stable cell lines expressing high and low GLP-1R surface expression are generated in CHO-K1 cells transfected (Fugene 6) with a puromycin selectable DNA plasmid encoding human GLP-1R receptor (accession number: NM_002062.5) under control of an EF1A promoter. Transfected cells are seeded into 24-well plates (9,000 cells/well) containing complete medium and incubated in a humidified incubator at 37° C. with 5% carbon dioxide. After overnight incubation, medium is replaced with complete medium supplemented with puromycin (6 μg/mL) and refreshed every 2-3 days to select for stably transfected cells. Individual pools of selected cells are expanded prior to analysis for responsiveness to GLP-1 control peptide using a TR-FRET assay to detect cAMP (LANCE Ultra cAMP Assay, Perkin Elmer). Briefly, cells are collected in Versene solution, plated in 384-well plates (1,000 cells/well) and combined with serially diluted GLP-1R control peptide (10 nL) using an acoustic dispenser (ECHO). Plates are incubated for 30 minutes at 25° C. prior to the addition of EU-cAMP tracer (5 μL) and Ulight-anti-cAMP (5 μL) reagents to each well, followed by 15 minutes incubation at 25° C. TR-FRET signal is detected using an EnVision Multimode Plate Reader (excitation=320 nm; emission=615 and 655 nm). Dose-response curves are used to generate EC50 values as a measure of responsiveness to the GLP-1R control peptide. Selected cell lines are monitored for responsiveness over multiple passages to ensure stability. […] Briefly, GLP-1R expression is analyzed by flow cytometry using a fluorescein-labeled Exendin-4 peptide fluorescent probe (FLEX). Cells are harvested in Versene solution and washed 3-times with PBS+0.5% BSA before incubation with FLEX reagent (10 μM) for 2 hours at room temperature. After incubation, cells are washed 3-times in PBS+0.5% BSA before final resuspension in PBS prior to analysis by flow cytometry to measure FLEX mean fluorescence intensity (MFI) as a measure of GLP-1R expression on the cell surface.
# For compound testing in the CHO-K1_hGLP-1Rlow_clone10 cell lines, cells are seeded in 384-well plates (1,000 cells/well). Test compounds are serially diluted in DMSO (10-point, 3-fold dilution), added to wells using an ECHO dispenser (10 nL/well) and plates are centrifuged for 1 min and agitated for 2 min at room temperature prior to 30-minute incubation at 25° C. After incubation, Eu-cAMP (5 μL) and Ulight-anti-cAMP (5 μL) reagents are added to each well, followed by centrifugation for 1 minute, agitation for 2 minutes at room temperature, and final incubation of the plates at 25° C. for 15 minutes. Plates are read using an EnVision microplate reader (excitation=320 nm; emission=615 and 655 nm). Dose-response curves are generated from duplicate wells based on percent activation calculated relative to a control GLP-1 peptide agonist that was run in parallel. EC50 values are determined by fitting percent activation as a function of compound concentration using the Hill equation (XLfit).
# Stable cell lines expressing high and low GLP-1R surface expression were generated in CHO-K1 cells transfected (Fugene 6) with a puromycin selectable DNA plasmid encoding human GLP-1R receptor (accession number: NM_002062.5) under control of an EF1A promoter. Transfected cells were seeded into 24-well plates (9,000 cells/well) containing complete medium and incubated in a humidified incubator at 37° C. with 5% carbon dioxide. After overnight incubation, medium was replaced with complete medium supplemented with puromycin (6 μg/mL) and refreshed every 2-3 days to select for stably transfected cells. Individual pools of selected cells were expanded prior to analysis for responsiveness to GLP-1 control peptide using a TR-FRET assay to detect cAMP (LANCE Ultra cAMP Assay, Perkin Elmer).
# T1 sequence (P43220 24-463): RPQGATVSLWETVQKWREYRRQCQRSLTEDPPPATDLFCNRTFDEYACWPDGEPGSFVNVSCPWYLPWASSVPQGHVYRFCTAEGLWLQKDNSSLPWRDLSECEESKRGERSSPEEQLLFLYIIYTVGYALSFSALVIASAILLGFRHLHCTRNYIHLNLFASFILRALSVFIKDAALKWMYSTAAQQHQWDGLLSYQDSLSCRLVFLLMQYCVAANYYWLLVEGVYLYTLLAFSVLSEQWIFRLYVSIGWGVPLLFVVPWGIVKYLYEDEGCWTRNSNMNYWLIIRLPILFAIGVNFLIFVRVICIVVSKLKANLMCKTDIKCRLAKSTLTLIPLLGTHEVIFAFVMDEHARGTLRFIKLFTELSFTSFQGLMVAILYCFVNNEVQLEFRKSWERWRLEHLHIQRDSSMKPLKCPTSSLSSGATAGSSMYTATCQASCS
row,EC50 [nM],SMILES
1,> 100,"N#Cc1ccc(COc2cccc(N3CCN(Cc4nc5ccc(-c6nnc(C(F)(F)F)[nH]6)cc5n4Cc4cncs4)[C@@H]4C[C@@H]43)n2)c(F)c1 (racemic) [Compound 12, 3-Fluoro-4-(((6-(5-((1-(thiazol-5-ylmethyl)-6-(5-(trifluoromethyl)-4H-1,2,4-triazol-3-yl)-1H-benzo[d]imidazol-2-yl)methyl)-2,5-diazabicyclo[4.1.0]heptan-2-yl)pyridin-2-yl)oxy)methyl)benzonitrile]"
2,> 100,"CC1(c2ccc(C#N)cc2F)Oc2cccc(N3CCN(Cc4nc5ccc(-c6nnc(C(F)(F)F)[nH]6)cc5n4Cc4cncs4)C4CC43)c2O1 (centres unmarked) [Compound 13, 3-Fluoro-4-(2-methyl-4-(5-((1-(thiazol-5-ylmethyl)-6-(5-(trifluoromethyl)-4H-1,2,4-triazol-3-yl)-1H-benzo[d]imidazol-2-yl)methyl)-2,5-diazabicyclo[4.1.0]heptan-2-yl)benzo[d][1,3]dioxol-2-yl)benzonitrile]"
3,5 to 50,"N#Cc1ccc(COc2cccc(C3CCN(Cc4nc5ccc(C(=O)O)cc5n4Cc4cncs4)C4CC34)n2)c(F)c1 (centres unmarked) [Compound 16, 2-((5-(6-((4-Cyano-2-fluorobenzyl)oxy)pyridin-2-yl)-2-azabicyclo[4.1.0]heptan-2-yl)methyl)-1-(thiazol-5-ylmethyl)-1H-benzo[d]imidazole-6-carboxylic Acid]"
4,5 to 50,"CO[C@H](C)Cn1c(CN2CCC(c3cccc(OCc4ccc(C#N)cc4F)n3)C3CC32)nc2ccc(C(=O)O)cc21 (stereo partly drawn) [Compound 21, 2-((5-(6-((4-Cyano-2-fluorobenzyl)oxy)pyridin-2-yl)-2-azabicyclo[4.1.0]heptan-2-yl)methyl)-1-((R)-2-methoxypropyl)-1H-benzo[d]imidazole-6-carboxylic Acid]"
5,> 100,"C[C@@]1(c2ccc(C#N)cc2F)Oc2cccc(N3CCN(Cc4nc5ccc(C(=O)O)cc5n4Cc4cncs4)[C@H]4C[C@H]43)c2O1 [Compound 35, 2-((5-(2-(4-Cyano-2-fluorophenyl)-2-methylbenzo[d][1,3]dioxol-4-yl)-2,5-diazabicyclo[4.1.0]heptan-2-yl)methyl)-1-(thiazol-5-ylmethyl)-1H-benzo[d]imidazole-6-carboxylic Acid]"
6,50 to 100,"CO[C@H](C)Cn1c(CN2CCN(c3cccc4c3OC(C)(c3ccc(C#N)cc3F)O4)C3CC32)nc2ccc(C(=O)O)cc21 (stereo partly drawn) [Compound 39, 2-((5-(2-(4-Cyano-2-fluorophenyl)-2-methylbenzo[d][1,3]dioxol-4-yl)-2,5-diazabicyclo[4.1.0]heptan-2-yl)methyl)-1-((R)-2-methoxypropyl)-1H-benzo[d]imidazole-6-carboxylic Acid]"
7,< 5,"CC1(c2ccc(C#N)cc2F)Oc2cccc(N3CCN(Cc4nc5ccc(C(=O)O)cc5n4C[C@@H]4CCO4)C4CC43)c2O1 (stereo partly drawn) [Compound 41, 2-((5-(2-(4-cyano-2-fluorophenyl)-2-methylbenzo[d][1,3]dioxol-4-yl)-2,5-diazabicyclo[4.1.0]heptan-2-yl)methyl)-1-(((S)-oxetan-2-yl)methyl)-1H-benzo[d]imidazole-6-carboxylic Acid]"
8,> 100,"CCn1nncc1Cn1c(CN2CCN(c3cccc(OCc4ccc(C#N)cc4F)n3)[C@@H]3C[C@@H]32)nc2ccc(C(=O)O)cc21 [Compound 44, 2-((5-(6-((4-Cyano-2-fluorobenzyl)oxy)pyridin-2-yl)-2,5-diazabicyclo[4.1.0]heptan-2-yl)methyl)-1-((1-ethyl-1H-1,2,3-triazol-5-yl)methyl)-1H-benzo[d]imidazole-6-carboxylic Acid]"
9,50 to 100,"N#Cc1ccc(COc2cccc(N3CCC(Cc4nc5ccc(C(=O)O)cc5n4Cc4cncs4)C4CC43)n2)c(F)c1 (centres unmarked) [Compound 46, 2-((2-(6-((4-Cyano-2-fluorobenzyl)oxy)pyridin-2-yl)-2-azabicyclo[4.1.0]heptan-5-yl)methyl)-1-(thiazol-5-ylmethyl)-1H-benzo[d]imidazole-6-carboxylic Acid]"

# System: not listed separately
# Experiment: Metabolic stability in hepatocytes
# Assay type: in vitro ADME
# Settings: cryopreserved human hepatocytes (suspension), 1×10^6 cells/mL, 0-240 min, read-out: hHep t1/2
# Method: Test compounds are incubated in human hepatocytes and stability is assessed from the substrate […] approach. Test compounds are dissolved in dimethyl sulfoxide (DMSO) to create a 10 mM Stock, and then further diluted to create a 1000× Working Stock of 1 mM with DMSO in 96-well plates for test compounds and the positive control (midazolam). Vials containing cryopreserved hepatocytes are removed from the liquid nitrogen tank and immediately immersed in a 37° C. water bath. The vials are shaken gently until the contents had thawed and were then immediately emptied into 48 mL of pre-warmed HT Medium in a 50 mL conical tube. Cells remaining in the vial are resuspended with 1.0 mL of pre-warmed HT Medium and added to the conical tube. The tube is capped and then gently inverted several times to resuspend the hepatocytes. The cell suspension is centrifuged at 50×g at room temperature for 5 minutes and the supernatant discarded. The cell pellet is loosened by gently swirling the centrifuge tube and is re-suspended in 4 mL of warm Dulbecco's Modified Eagle medium (DMEM). Cell density is determined by a cell counter by Nexcelom, and DMEM medium is added to obtain a target density of 1×10^6 cells/mL. The assay is carried out in 96-well microtiter plates. Test Compounds are incubated at 1 μM with 1×10^6 cells/mL hepatocytes in DMEM for 0, 30, 60, 120 and 240 minutes. The incubation is carried out with gentle shaking at 37° C. under a humid atmosphere of 95% air/5% CO2. The volume of the incubation mixture is 37 μL with a final 0.1% DMSO. At each of the time points, the incubation is stopped by adding 150 μL quenching solution (100% acetonitrile, 0.1% formic acid containing bucetin as an internal standard for positive ESI mode). Subsequently, the mixtures are vortexed for 20 min and centrifuged at 4,000 RPM at 10° C. The supernatant (80 μL) is transferred to a clean 96-well plate and analyzed by LC-MS/MS. Midazolam at 1 μM with a final 0.1% DMSO is included as a positive control to verify assay performance. The percent parent remaining, intrinsic and predicted hepatic clearance and t1/2 are calculated. All samples are analyzed by LC-MS/MS using an AB Sciex API 4000 instrument, coupled to a Shimadzu LC-20AD LC Pump system. Separation is achieved using a Waters Atlantis T3 dC18 reverse phase HPLC column (20 mm×2.1 mm) at a flow rate of 0.5 mL/min. The mobile phase consisted of 0.1% formic acid in water (solvent A) and 0.1% formic acid in 100% acetonitrile (solvent B). Elution conditions are detailed below.
# The ion optics of each test compound are optimized for their declustering potential (DP), […] (CE), collision-cell exit potential (CXP) and used in a selected ion monitoring experiment in the positive ion mode. The peak area ratio of each test compound to internal standard is then evaluated for stability. The extent of metabolism is calculated based on the disappearance of the test compound, compared to its initial concentration. The initial rates of clearance of the test compound are calculated using the linear regression plot of semi-log % remaining of the compound versus time. The elimination rate constant (k) of the linear regression plot is then used to determine t1/2 and the intrinsic clearance (CLint) using the following formula, where Chepatocyte (million cells/mL) is the cell density of the incubation: k=−slope t1/2=0.693/k CLint=k/Chepatocyte
# Test compounds were incubated in human hepatocytes and stability was assessed from the substrate […] approach. Test compounds were dissolved in dimethyl sulfoxide (DMSO) to create a 10 mM Stock, and then further diluted to create a 1000× Working Stock of 1 mM with DMSO in 96-well plates for test compounds and the positive control (midazolam). Vials containing cryopreserved hepatocytes were removed from the liquid nitrogen tank and immediately immersed in a 37° C. water bath. […]
row,half-life at 1 μM [min],SMILES
1,156,"N#Cc1ccc(COc2cccc(C3CCN(Cc4nc5ccc(C(=O)O)cc5n4C[C@@H]4CCO4)CC3)n2)c(F)c1 [Reference Compound B, reference compound]"

# Same assay, conditions: cryopreserved human hepatocytes (suspension), 1×10^6 cells/mL, intrinsic clearance, read-out: hHep CLint
row,CLint scaled at 1 μM [mL/min/kg],SMILES
1,15.5,"N#Cc1ccc(COc2cccc(C3CCN(Cc4nc5ccc(C(=O)O)cc5n4C[C@@H]4CCO4)CC3)n2)c(F)c1 [Reference Compound B, reference compound]"
